Experimental data from US20140023611A1 (priority 2010, published 2014).
Marks after values point to notes of the source that are not given here.

What was measured:
[1] = Stability of compounds in simulated gastric and intestinal fluid; assay type: in vitro ADME; conditions: Structure (V) examples, Table 3, 3 hr; for % remaining, SGF: simulated gastric fluid; for % remaining, SIF: simulated intestinal fluid
Protocol: (§1) Test compounds were incubated at 1-20 μM in simulated gastric fluid (SGF; standard USP solution with 3 mg/mL pepsin) or simulated intestinal fluid (SIF; standard USP solution with 3 mg/mL pancreatin) for 3 hr or 6 hr. HPLC-UV or HPLC-MS were used to determine test compound levels using peak area %. Results (Table 5) were reported as the percentage of test compound remaining after incubation in a given condition relative to test compound present at t=0 in the same condition.
as §1, with “3” for “3 hr or 6”, “3)” for “5)”

[2] = target: T1, rat NaP2b (SLC34A2) (Rattus norvegicus, UniProt Q9JJ09); experiment: NaP2b-mediated Pi transport (33P uptake) in transfected HEK293 cells, rat NaP2b; assay type: cell-based; conditions: Structure (V) examples, Table 2; rat NaP2b, HEK293; read-out: pIC50 Range (converted)
T1 construct: host or cells: HEK293
T1 sequence (Q9JJ09 1-695): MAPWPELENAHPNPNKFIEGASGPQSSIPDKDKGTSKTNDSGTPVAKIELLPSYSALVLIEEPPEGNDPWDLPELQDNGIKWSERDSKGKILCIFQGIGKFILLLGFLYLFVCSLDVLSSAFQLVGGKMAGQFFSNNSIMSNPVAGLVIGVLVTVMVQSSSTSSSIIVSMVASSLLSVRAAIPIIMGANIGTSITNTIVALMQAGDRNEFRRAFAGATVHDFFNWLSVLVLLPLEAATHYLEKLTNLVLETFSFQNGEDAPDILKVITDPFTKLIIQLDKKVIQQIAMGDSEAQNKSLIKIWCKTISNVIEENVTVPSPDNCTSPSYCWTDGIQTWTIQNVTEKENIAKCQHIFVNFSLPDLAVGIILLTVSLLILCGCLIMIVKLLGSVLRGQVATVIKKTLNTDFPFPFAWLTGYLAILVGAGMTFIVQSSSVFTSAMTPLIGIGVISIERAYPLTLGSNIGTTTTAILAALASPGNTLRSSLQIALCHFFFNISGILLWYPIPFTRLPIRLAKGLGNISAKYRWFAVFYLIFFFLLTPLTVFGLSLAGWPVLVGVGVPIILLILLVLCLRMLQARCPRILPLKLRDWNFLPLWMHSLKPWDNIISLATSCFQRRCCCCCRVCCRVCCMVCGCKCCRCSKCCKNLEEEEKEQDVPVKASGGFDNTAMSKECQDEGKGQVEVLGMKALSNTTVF
How it was run: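 HEK293 cells transiently transfected with NaP2b cDNA, endogenous PiT transport suppressed; ^33P-phosphate uptake measured in sodium vs choline buffer (100 uM KH2PO4, pH 7.4) for 3–30 min at room temperature. Twelve concentrations, 0.1 nM–30 uM, in duplicate; uptake by scintillation counting, pIC50 calculated.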

[3] = tested on: 5/6 nephrectomy (5/6Nx) rat model of CKD; experiment: In vivo evaluation procedure: CKD rats, drug in chow; conditions: for FGF23 (serum FGF23 levels): ELISA
Protocol: To assess the ability of selected example compounds to impact the progression of chronic kidney disease (CKD), 5/6 nephrectomy (5/6Nx) rat model of CKD was used. […] Upon arrival, the surgeries and extent of kidney damage in the animals were assessed by measuring serum creatinine, P, Ca, and BUN. Based on this analysis, rats with inconsistent kidney function were removed from the study and the remainder of the cohort was divided in to evenly stratified test groups. The remaining animals were then placed on the same synthetic diet used in the drug-in-chow studies (Example 350), except the P levels were adjusted to 0.9% P. Drugs are blended into this chow to achieve the required dosing rate. At this time, rats were also started on an activated Vitamin D regimen in which they were injected intraperitoneally with calcitriol at 80 ng/kg three times a week. Once a week, serum was collected via retro orbital bleeding for analysis of serum P and creatinine utilizing an ACE ALERA blood chemistry analyzer. […] Unless otherwise indicated, the data shown is from the serum collected at 2 weeks after initiation of the treatment regimen. In addition, for study #3, during the third week of the study, the animals were placed in metabolic cages for two days, and urine collected for the final 24 hours.

[4] = Study 3, 5/6Nx rats, data at 3 weeks

COCCNC(=O)CCSCc1cccc(C(=O)Nc2ccc(N3CCCCC3)cc2C(=O)N/N=C/c2ccc(Cl)c(C(F)(F)F)c2)c1 [Ex. 49, (E)-N-(2-(2-(4-chloro-3-(trifluoromethyl)benzylidene)hydrazinecarbonyl)-4-(piperidin-1-yl)phenyl)-3-((3-(2-methoxyethylamino)-3-oxopropylthio)methyl)benzamide]
% remaining, SGF [1]: 21%
% remaining, SIF [1]: 89%
IC50 [2]: 100 to 794 nM

O=C(NCCN1CCOCC1)c1cccc(C(=O)Nc2ccc(N3CCCCC3)cc2C(=O)N/N=C/c2ccc(Cl)c(C(F)(F)F)c2)c1 [Ex. 53, (E)-N^1-(2-(2-(4-chloro-3-(trifluoromethyl)benzylidene)hydrazinecarbonyl)-4-(piperidin-1-yl)phenyl)-N3-(2-morpholinoethyl)isophthalamide]
% remaining, SGF [1]: 6%
% remaining, SIF [1]: 107%
IC50 [2]: 100 to 794 nM

CCN(CC)c1ccc(NC(=O)c2cccc(CSCCOCCOCCOCCOCCOCCOCCOCCOCCC(=O)O)c2)c(-c2cc(C(=O)NCc3cccc(C(F)(F)F)c3)ccn2)c1 [Example 166, 1-(3-(4-(diethylamino)-2-(4-(3-(trifluoromethyl)benzylcarbamoyl)pyridin-2-yl)phenylcarbamoyl)phenyl)-5,8,11,14,17,20,23,26-octaoxa-2-thianonacosan-29-oic acid]
Ser P (serum P) ([3]; Study 2, 5/6Nx rats, 0.9% P diet + calcitriol, 2 weeks): 11 mg/dL
Ser CRE (serum creatinine) ([3]; Study 2, 5/6Nx rats, 2 weeks): 1.2 mg/dL
FGF23 (serum FGF23 levels) ([3]; Study 2, 5/6Nx rats, 2 weeks): 100000 pg/mL
Ser CRE (serum creatinine) [3, 4]: 1.0^§ mg/dL
Ser P (serum P) [3, 4]: 10^§ mg/dL
FGF23 (serum FGF23 levels) ([3]; Study 3, 5/6Nx rats, data at 4 weeks): 1.2 × 10^5§§ pg/mL

CCN(CC)c1ccc(NC(=O)c2cccc(CCCOCCOCCOCCOCCOCCOCCOCCOCCOC)c2)c(-c2cc(C(=O)N[C@H]3CCCc4ccccc43)ccn2)c1 [Example 261, (S)-2-(2-(3-(2,5,8,11,14,17,20,23,26-nonaoxanonacosan-29-yl)benzamido)-5-(diethylamino)phenyl)-N-(1,2,3,4-tetrahydronaphthalen-1-yl)isonicotinamide]
Ser P (serum P) ([3]; Study 1, 5/6Nx rats, 0.9% P diet + calcitriol, 2 weeks): 9.7 mg/dL
Ser CRE (serum creatinine) ([3]; Study 1, 5/6Nx rats, 2 weeks): 1.0 mg/dL
FGF23 (serum FGF23 levels) ([3]; Study 1, 5/6Nx rats, 2 weeks): >15,000 pg/mL
